Source: PMC3913854 (Investigational New Drugs, 2013)
Entries after “also recorded” stand apart in the source; their conditions may differ.

How the values were obtained:
[1] = test system: brain metastases from HER2+ breast cancer; conditions: monotherapy; N = 242; cited from earlier work
[2] = across an intact or a tumor-compromised BBB; cited from earlier work
malignant cell lines = conditions: preclinical; cited from earlier work
[3] = test system: mutant EGFR kinase (L858R and L861Q); conditions: preclinical, Nakayama et al., unpublished data, 2012; cited from earlier work
murine xenograft models = conditions: cited from earlier work
[4] = phase 1 study: CSF distribution and protein binding; format: in vivo, human; conditions: 400 mg BID; for Css,avg,u,CSF (steady-state average unbound CSF concentration): n = 5, calculated by Eq. 1
[5] = test system: patients with advanced cancers; conditions: Japanese patients, N = 26, cited from earlier work
[6] = phase 1 study: plasma pharmacokinetics; format: in vivo, human
advanced solid tumors = assay: phase 1 study: tumor response; format: in vivo, human; conditions: for clinical benefit rate: CR, PR or SD durable for > 6 cycles
[7] = rats; cited from earlier work
[8] = test system: EGFR mutant NSCLC cell line HCC4006; conditions: ref data on file; cited from earlier work
[9] = in vitro; Nakayama et al., unpublished data, 2012; cited from earlier work
[10] = test system: breast cancer resistance protein (BCRP); conditions: in vitro transport studies; Nakayama et al., unpublished data, 2012; cited from earlier work
P-glycoprotein (P-gp) = conditions: in vitro transport studies; Nakayama et al., unpublished data, 2012; cited from earlier work
[11] = test system: patients with advanced cancer; assay: phase 1 dose-escalation study: safety, MTD, DLTs, adverse events; format: in vivo, human

## CS(=O)(=O)CCNCc1ccc(-c2ccc3ncnc(Nc4ccc(OCc5cccc(F)c5)c(Cl)c4)c3c2)o1 [lapatinib, N-{3-chloro-4-[(3-fluorobenzyl)oxy]phenyl}-6-[5-({[2-(methylsulfonyl)ethyl]amino}methyl)-2-furyl]-4-quinazolinamine]
[1]
  clinical benefit rate: 43%
  objective response rate: 6%
  patients with ≥ 50 % reduction in CNS tumor size: 8%
[2]
  central nervous system (CNS) penetration: negligible

## CC(C)(O)CC(=O)NCCn1ccc2ncnc(Nc3ccc(Oc4cccc(C(F)(F)F)c4)c(Cl)c3)c21 [TAK-285]
Malignant cell lines
  growth of malignant cell lines: inhibits the growth
[3]
  inhibition of mutant EGFR kinase activity: inhibits mutant EGFR kinase activity
Murine xenograft models
  antitumor activity: has antitumor activity
[4]; geometric mean (%CV)
  Css,avg,u,CSF (steady-state average unbound CSF concentration): 1.54 ng/mL
[4]; range of individual values
  Css,avg,u,CSF (steady-state average unbound CSF concentration): 0.51 to 4.27 ng/mL
[4]; human, CSF (unbound) / plasma (unbound), oral, Cu,CSF:Cu,p ratio, 3 to 4 h postdose day 15, n = 7, mean (%CV)
  Kp: 0.663
[5]
  tolerability: generally well tolerated
[5]; parotid cancer
  partial response: 1 patient
[5]; twice daily [BID]
  maximum tolerated dose (MTD): 300 mg
[6]; 50 mg BID to 500 mg BID
  dose-proportionality of steady-state exposures: greater than dose-proportional
[6]; 400 mg BID
  %CV of steady-state t½: 11%
[6]; 10-fold increase in dose, 50 mg BID to 500 mg BID
  increase in geometric mean steady-state AUC0-τ: 29 fold
[6]; MTD of 400 mg BID
  extent of accumulation: approximately 3 fold
[6]; based on similar trough concentrations on days 8, 15 and 21
  pharmacokinetic steady-state achieved: ≤ 8 days
[6]; oral, across cohorts, median
  time of maximum (peak) plasma concentration: 2 to 3 h
[6]; power model, 95 % CI, 1.26–1.59
  slope of linear regression of log (Css,avg) versus log (Dose): 1.43
[6]; steady-state, MTD of 400 mg BID
  %CV in AUC0-τ: 58%
Advanced solid tumors; RP2D cohort, 1 patient
  clinical benefit rate: 13%
Advanced solid tumors; RP2D cohort, 4 of 8 patients
  stable disease (best response): 50%
Advanced solid tumors; all cohorts
  complete or partial response: No patient
Advanced solid tumors; dose-escalation cohorts, 3 patients
  clinical benefit rate: 9%
Advanced solid tumors; dose-escalation cohorts, 9 of 33 patients
  stable disease (best response): 27%
[7]
  BBB penetration / brain distribution: crosses the intact BBB; also recorded: penetrates the BBB
[8]
  inhibition of cell growth: did not inhibit the growth
[9]
  transcellular permeability: high
[10]
  substrate for BBB efflux transporter BCRP: not a substrate
P-glycoprotein (P-gp)
  substrate for BBB efflux transporter P-gp: not a substrate
[11]; all cohorts, as summarised in abstract
  dose-limiting toxicities: diarrhea, hypokalemia, and fatigue
[11]; at the MTD/RP2D of 400 mg BID
  tolerability: generally well tolerated
